In general, IC50 refers to the midpoint of a concentration-inhibition curve.

Drawing on patent US12202835B2, “Substituted aromatic ring-linked dioxinoquinazolines and dioxinoquinolines as kinase inhibitors” (BEIJING SCITECH-MQ PHARMACEUTICALS LIMITED, priority 2018, dated 2025), this text covers IC50 for 16 molecules.

For one assay, the target named is TRKA kinase (Homo sapiens (Human), UniProt P04629). Nature of the assay: Assay of small molecular compounds for inhibiting the activity of TRKA kinase (LANCE TR-FRET). In kind it is biochemical. The essentials:
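LANCE TR-FRET with ULight-TK peptide; compounds pre-incubated 5 min with TRKA (2× solution 2 nM), then substrate/ATP added (4× mix: 400 nM peptide, 40 μM ATP). Reaction 60 min at room temperature in dark, 1% DMSO final; stopped, detection developed 60 min, signal read.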
A general note: In TR-FRET formats the signal depends on donor and acceptor labels being close together.

The target in the next assay is VEGFR-2 kinase (Homo sapiens (Human), UniProt P35968). Nature of the assay: Assay of small molecular compounds for inhibiting the activity of VEGFR-2 kinase (LANCE TR-FRET). In kind it is biochemical. As to conditions: read-out: VEGFR2 IC50. Summed up: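 LANCE TR-FRET with human VEGFR-2 (2× stock 0.5 nM) preincubated 30 min with compound (final 2500 to 0.042 nM, 11-point 3-fold), then ULight-JAK-1 (Tyr1023) peptide/ATP added (4× stocks 200 nM/40 μM). Reaction 60 min room temperature, 4% DMSO; IC50 from inhibition-rate curve.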

The subject of another assay is Ba/F3 LMNA-NTRK1 cells. As to the kind of experiment: Assay for inhibiting the proliferation of Ba/F3 LMNA-NTRK1 cells (CCK-8). As to conditions: Mus musculus, BaF3. In kind it is cell-based. The essentials:
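Cells were seeded and cultured overnight, then treated with graded compound concentrations (final DMSO 0.25%) for 72 h. CCK-8 was added for 1–2 h at 37 °C and OD450 read. Survival was normalised to untreated and cell-free blank wells, and IC50 was fitted.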

Sequence of VEGFR-2 kinase (P35968 20-1356): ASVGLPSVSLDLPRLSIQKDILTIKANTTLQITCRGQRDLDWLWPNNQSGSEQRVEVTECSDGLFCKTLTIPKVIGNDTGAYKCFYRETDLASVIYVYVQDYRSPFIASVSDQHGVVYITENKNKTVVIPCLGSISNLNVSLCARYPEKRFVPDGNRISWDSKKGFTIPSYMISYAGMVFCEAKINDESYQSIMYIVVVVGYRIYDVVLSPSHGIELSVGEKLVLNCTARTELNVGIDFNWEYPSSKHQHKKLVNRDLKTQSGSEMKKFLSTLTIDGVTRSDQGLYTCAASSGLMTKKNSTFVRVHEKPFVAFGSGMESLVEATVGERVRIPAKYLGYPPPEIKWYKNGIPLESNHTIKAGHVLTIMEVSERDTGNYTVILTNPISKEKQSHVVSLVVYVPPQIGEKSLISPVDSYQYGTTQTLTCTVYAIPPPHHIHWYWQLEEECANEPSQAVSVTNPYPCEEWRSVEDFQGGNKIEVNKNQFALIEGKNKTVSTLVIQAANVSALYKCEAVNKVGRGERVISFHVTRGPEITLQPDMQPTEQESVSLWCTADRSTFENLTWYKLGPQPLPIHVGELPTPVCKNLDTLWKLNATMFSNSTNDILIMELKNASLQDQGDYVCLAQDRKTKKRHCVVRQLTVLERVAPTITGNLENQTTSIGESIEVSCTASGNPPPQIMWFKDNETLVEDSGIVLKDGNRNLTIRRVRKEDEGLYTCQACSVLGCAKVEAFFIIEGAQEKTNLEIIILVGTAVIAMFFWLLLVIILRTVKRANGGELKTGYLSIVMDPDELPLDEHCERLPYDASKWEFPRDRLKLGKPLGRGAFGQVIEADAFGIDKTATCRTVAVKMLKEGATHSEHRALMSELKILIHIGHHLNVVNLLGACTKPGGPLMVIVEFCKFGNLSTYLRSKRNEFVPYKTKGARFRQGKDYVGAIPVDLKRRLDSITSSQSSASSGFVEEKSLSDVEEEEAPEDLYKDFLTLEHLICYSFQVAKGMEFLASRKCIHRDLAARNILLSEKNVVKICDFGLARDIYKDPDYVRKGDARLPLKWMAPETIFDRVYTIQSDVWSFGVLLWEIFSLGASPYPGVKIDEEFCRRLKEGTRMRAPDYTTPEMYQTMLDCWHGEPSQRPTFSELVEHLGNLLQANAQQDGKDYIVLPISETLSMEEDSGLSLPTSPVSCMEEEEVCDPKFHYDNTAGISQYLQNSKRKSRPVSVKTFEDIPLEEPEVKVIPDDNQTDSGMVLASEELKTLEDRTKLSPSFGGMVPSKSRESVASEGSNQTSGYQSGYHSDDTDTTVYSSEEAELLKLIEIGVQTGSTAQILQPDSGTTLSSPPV
Sequence of TRKA kinase (P04629 33-796): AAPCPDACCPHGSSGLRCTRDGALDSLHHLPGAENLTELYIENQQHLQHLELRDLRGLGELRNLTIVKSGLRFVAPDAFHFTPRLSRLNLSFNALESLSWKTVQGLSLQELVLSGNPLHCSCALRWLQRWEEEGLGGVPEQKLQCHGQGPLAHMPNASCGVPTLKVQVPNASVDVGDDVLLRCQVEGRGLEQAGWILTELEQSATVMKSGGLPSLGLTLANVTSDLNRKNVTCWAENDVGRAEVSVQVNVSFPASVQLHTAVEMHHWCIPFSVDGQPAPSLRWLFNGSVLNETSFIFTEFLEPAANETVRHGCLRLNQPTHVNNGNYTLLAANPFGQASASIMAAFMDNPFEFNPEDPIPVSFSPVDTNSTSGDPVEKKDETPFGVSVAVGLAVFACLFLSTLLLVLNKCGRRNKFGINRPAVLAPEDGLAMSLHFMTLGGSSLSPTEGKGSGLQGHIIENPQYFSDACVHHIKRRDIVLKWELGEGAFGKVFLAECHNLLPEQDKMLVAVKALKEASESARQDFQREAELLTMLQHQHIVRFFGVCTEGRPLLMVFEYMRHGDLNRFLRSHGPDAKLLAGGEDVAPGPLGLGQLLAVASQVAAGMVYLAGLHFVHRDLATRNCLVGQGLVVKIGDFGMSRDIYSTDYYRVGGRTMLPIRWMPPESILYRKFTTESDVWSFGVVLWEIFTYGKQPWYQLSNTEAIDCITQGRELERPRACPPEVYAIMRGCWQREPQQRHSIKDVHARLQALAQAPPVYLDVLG

Turning to `O=C(Nc1ccc(Oc2ncnc3cc(OCCCN4CCOCC4)c4c(c23)OCCO4)c(F)c1)c1cccn(-c2ccc(F)cc2)c1=O` [Example 4, N-(3-fluoro-4-((5-(3-morpholinopropoxy)-2,3-dihydro-[1,4]dioxino[2,3-f]quinazolin-10-yl)oxy)phenyl)-1-(4-fluorophenyl)-2-oxo-1,2-dihydropyridine-3-carboxamide], the figures for the IC50 against TRKA kinase and at VEGFR-2 kinase were less than 50 nM and no more than 50 nM, respectively.
For the molecule `COc1ccn(-c2ccc(F)cc2)c(=O)c1C(=O)Nc1ccc(Oc2ncnc3cc(OCCCN4CCOCC4)c4c(c23)OCCO4)c(F)c1` [Example 5, N-(3-fluoro-4-((5-(3-morpholinopropoxy)-2,3-dihydro-[1,4]dioxino[2,3-f]quinazolin-10-yl)oxy)phenyl)-1-(4-fluorophenyl)-4-methoxy-2-oxo-1,2-dihydropyridine-3-carboxamide], the figures for the IC50 at TRKA kinase and on VEGFR-2 kinase were less than 50 nM and 50 to 500 nM, respectively.
As to `CC(C)n1cc(C(=O)Nc2ccc(Oc3ccnc4cc(OCCCN5CCOCC5)c5c(c34)OCCO5)c(F)c2)c(=O)n(-c2ccc(F)cc2)c1=O` [Example 16, N-(3-fluoro-4-((5-(3-morpholinopropoxy)-2,3-dihydro-[1,4]dioxino[2,3-f]quinolin-10-yl)oxy)phenyl)-3-(4-fluorophenyl)-1-isopropyl-2,4-dioxo-1,2,3,4-tetrahydropyrimidine-5-carboxamide], the IC50 against TRKA kinase and with Ba/F3 LMNA-NTRK1 cells was less than 50 nM throughout.
For `COc1cc2nccc(Oc3ccc(NC(=O)c4cn(CCCO)c(=O)n(-c5ccc(F)cc5)c4=O)cc3F)c2c2c1OCCO2` [Example 99, N-(3-fluoro-4-((5-methoxy-2,3-dihydro-[1,4]dioxino[2,3-f]quinolin-10-yl)oxy)phenyl)-3-(4-fluorophenyl)-1-(3-hydroxypropyl)-2,4-dioxo-1,2,3,4-tetrahydropyrimidine-5-carboxamide], the IC50 against TRKA kinase was 50 to 500 nM; at VEGFR-2 kinase it was 500 to 5000 nM.
The corresponding values for `C=CCn1cc(C(=O)Nc2ccc(Oc3ccnc4cc(OC)c5c(c34)OCCO5)c(F)c2)c(=O)n(-c2ccc(F)cc2)c1=O` [Example 100, N-(3-fluoro-4-((5-methoxy-2,3-dihydro-[1,4]dioxino[2,3-f]quinolin-10-yl)oxy)phenyl)-3-(4-fluorophenyl)-1-allyl-2,4-dioxo-1,2,3,4-tetrahydropyrimidine-5-carboxamide] are 50 to 500 nM and 500 to 5000 nM.
The corresponding values for `COc1cc2nccc(Oc3ccc(NC(=O)c4cn(CCF)c(=O)n(-c5ccc(F)cc5)c4=O)cc3F)c2c2c1OCCO2` [Example 101, N-(3-fluoro-4-((5-methoxy-2,3-dihydro-[1,4]dioxino[2,3-f]quinolin-10-yl)oxy)phenyl)-3-(4-fluorophenyl)-1-(2-fluoroethyl)-2,4-dioxo-1,2,3,4-tetrahydropyrimidine-5-carboxamide] are 50 to 500 nM and 500 to 5000 nM.
In the case of `CC(C)n1cc(C(=O)Nc2ccc(Oc3ccnc4cc(OCC5(N)CC5)c5c(c34)OCCO5)c(F)c2)c(=O)n(-c2ccc(F)cc2)c1=O` [Example 106, N-(3-fluoro-4-((5-((1-aminocyclopropyl)methoxy)-2,3-dihydro-[1,4]dioxino[2,3-f]quinolin-1 0-yl)oxy)phenyl)-3-(4-fluorophenyl)-1-isopropyl-2,4-dioxo-1,2,3,4-tetrahydropyrimidine-5-carboxamide], the IC50 was 50 to 500 nM against TRKA kinase and greater than 5000 nM at VEGFR-2 kinase.
With `CCOc1ccn(-c2cccc(F)c2)c(=O)c1C(=O)Nc1ccc(Oc2ccnc3cc(OC)c4c(c23)OCCO4)c(F)c1` [Example 114, N-(3-fluoro-4-((5-methoxy-2,3-dihydro-[1,4]dioxino[2,3-f]quinolin-10-yl)oxy)phenyl)-2-oxo-4-ethoxy-1-(3-fluorophenyl)-1,2-dihydropyridin-3-carboxamide], the half-maximal inhibitory concentration (IC50) against TRKA kinase and on VEGFR-2 kinase was 50 to 500 nM each time.
For the molecule `CCOc1ccn(Cc2ccccc2)c(=O)c1C(=O)Nc1ccc(Oc2ccnc3cc(OC)c4c(c23)OCCO4)c(F)c1` [Example 117, N-(3-fluoro-4-((5-methoxy-2,3-dihydro-[1,4]dioxino[2,3-f]quinolin-10-yl)oxy)phenyl)-2-oxo-4-ethoxy-1-benzyl-1,2-dihydropyridin-3-carboxamide], the results for the IC50 on TRKA kinase and on VEGFR-2 kinase were 50 to 500 nM and 500 to 5000 nM, respectively.
As for `Cn1cc(C(=O)Nc2ccc(Oc3ccnc4cc(OCC(C)(C)O)c5c(c34)OCCO5)c(F)c2)c(=O)n(-c2ccc(F)cc2)c1=O` [Example 121, N-(3-fluoro-4-((5-(2-hydroxy-2-methylpropoxy)-2,3-dihydro-[1,4]dioxino[2,3-f]quinolin-10-yl)oxy)phenyl)-3-(4-fluorophenyl)-1-methyl-2,4-dioxo-1,2,3,4-tetrahydropyrimidine-5-carboxamide], the IC50 fell in the range of 50 to 500 nM at TRKA kinase and 500 to 5000 nM at VEGFR-2 kinase.
Regarding `COc1cc2nccc(Oc3ccc(NC(=O)c4cn(C)c(=O)n(-c5ccc(F)cc5)c4=O)c(Cl)c3)c2c2c1OCCO2` [Example 125, N-(2-chloro-4-((5-methoxy-2,3-dihydro-[1,4]dioxino[2,3-f]quinolin-10-yl)oxy)phenyl)-3-(4-fluorophenyl)-1-methyl-2,4-dioxo-1,2,3,4-tetrahydropyrimidine-5-carboxamide], the IC50 on TRKA kinase and in the assay on Ba/F3 LMNA-NTRK1 cells was less than 50 nM in each case.
On to `Cn1cc(C(=O)Nc2ccc(Oc3ccnc4cc(OCC(C)(C)O)c5c(c34)OCCO5)cc2Cl)c(=O)n(-c2ccc(F)cc2)c1=O` [Example 141, N-(2-chloro-4-((5-(2-hydroxy-2-methylpropoxy)-2,3-dihydro-[1,4]dioxino[2,3-f]quinolin-10-yl)oxy)phenyl)-3-(4-fluorophenyl)-1-methyl-2,4-dioxo-1,2,3,4-tetrahydropyrimidine-5-carboxamide], for which the IC50 against TRKA kinase and in the assay with Ba/F3 LMNA-NTRK1 cells was less than 50 nM throughout.
In the case of `O=C(Nc1ccc(Oc2ccnc3ccc4c(c23)OCCO4)c(F)c1)c1cccn(-c2ccc(F)cc2)c1=O` [Example 169, N-(4-((2,3-dihydro-[1,4]dioxino[2,3-f]quinolin-10-yl)oxy)-3-fluorophenyl)-1-(4-fluorophenyl)-2-oxo-1,2-dihydropyridine-3-carboxamide], the values for the IC50 on TRKA kinase and on VEGFR-2 kinase were less than 50 nM and 50 to 500 nM, respectively.
The like results for `O=C(Nc1ccc(Oc2ccnc3ccc4c(c23)OCCO4)cc1F)c1cccn(-c2ccc(F)cc2)c1=O` [Example 170, N-(4-((2,3-dihydro-[1,4]dioxino[2,3-f]quinolin-10-yl)oxy)-2-fluorophenyl)-1-(4-fluorophenyl)-2-oxo-1,2-dihydropyridine-3-carboxamide] were, in that order, less than 50 nM and 500 to 5000 nM.
`CCOc1ccn(-c2ccc(F)cc2)c(=O)c1C(=O)Nc1ccc(Oc2ccnc3ccc4c(c23)OCCO4)cc1F` [Example 171, N-(4-((2,3-dihydro-[1,4]dioxino[2,3-f]quinolin-10-yl)oxy)-2-fluorophenyl)-1-(4-fluorophenyl)-4-ethoxy-2-oxo-1,2-dihydropyridine-3-carboxamide]: the IC50 is less than 50 nM against TRKA kinase and 500 to 5000 nM on VEGFR-2 kinase.
For the molecule `COc1ccn(-c2ccc(F)cc2)c(=O)c1C(=O)Nc1ccc(Oc2ccnc3ccc4c(c23)OCCO4)cc1F` [Example 172, N-(4-((2,3-dihydro-[1,4]dioxino[2,3-f]quinolin-10-yl)oxy)-2-fluorophenyl)-1-(4-fluorophenyl)-4-methoxy-2-oxo-1,2-dihydropyridine-3-carboxamide], the results for the IC50 on TRKA kinase and at VEGFR-2 kinase were less than 50 nM and greater than 5000 nM, respectively.
